The conditions of data set [1]: cited from earlier work.
Data set [2] in a line: crystal suspensions of microcrystalline everolimus in different solvent mixtures (Example 6). The following applies: 770 mg trioctanoylglycerol per 100 mL. On the set-up: key: +++: good; +/−: average; −−−: poor. It is filed as physicochemical. The protocol: To prepare the solutions, 770 mg of trioctanoylglycerol was dissolved in the polar solvent. Then the nonpolar solvent was added. It was then homogenized and filtered.
To test whether crystal suspensions could be prepared, 10 mL of each of the solutions was carefully added to 200 mg of everolimus in the form of microcrystals at room temperature. After combining, it was tested whether stable crystal suspensions were obtained.

Where [3] appears, read: non-solvents, rounded values (Table 2).
Setting [4] is: nonpolar organic solvents (Table 8).
[5] abbreviates: polar organic solvents (Table 7).
The mark [6] stands for this setting: polar organic solvents, rounded values (Table 6).
Where [7] appears, read: nonpolar organic solvents, rounded values (Table 4).

Like-named read-outs stand apart in the source and are kept apart here.

Consider `CCCCCCCCCC` [Decan], for which the logKOW was 6.3 in data set [1] (setting [3]) and 6.25 in data set [1] (setting [4]).

Consider `CCCC(C)=O` [Solution 2-Pentanone, 2-Pentanone], for which the logKOW in data set [1] (setting [5]) is listed as 0.84; in data set [1] (setting [6]), “+0.9”.

With `CC1CCCC1` [Methylcyclopentane], in data set [1] (setting [3]), the logKOW is listed as 3.4.

Regarding `CCCCCCCCC` [Nonan], the logKOW in data set [1] (setting [3]) is reported as 5.7; in data set [1] (setting [4]) it was 5.65.

With `CCCCCCC` [Heptane], the logKOW in data set [1] (setting [3]) is 4.5; in data set [1] (setting [4]) it was 4.50.

Turning to `CCCCC(C)C` [2-Methylhexane], in data set [1] (setting [3]), the logKOW is 3.7.

Consider `CN1CCCC1=O` [N-methylpyrrolidone], for which, in data set [1] (setting [6]), the logKOW was −0.5.

Regarding `COc1ccccc1` [Anisol], the logKOW in data set [1] (setting [7]) was 2.1.

Consider `C1CCCCCCCCC1` [Cyclodecane], for which the logKOW in data set [1] (setting [3]) was 5.5.

In the case of `C1CCCCCCCC1` [Cyclononan], the logKOW in data set [1] (setting [3]) is reported as 5.1.

As for `O` [Water], in data set [1] (polar organic solvents, rounded orientation values (Table 5)), the logKOW entry is on record as “approx. −1.4”.

In the case of `CCC(=O)O` [Propionic acid], the logKOW in data set [1] (setting [5]) is given as 0.32.

Regarding `CCC(C)(C)C` [2,2-Dimethylbutane], the logKOW in data set [1] (setting [3]) was 3.8.

Regarding `CCC(C)C(C)C` (stereo not drawn) [2,3-Dimethylpentane], the logKOW in data set [1] (setting [3]) is listed as 3.8.

On to `C1CCCCCC1` [Cycloheptane], for which, in data set [1] (setting [3]), the logKOW is recorded as 4.

Consider `CCOC(C)=O` [Ethyl acetate], for which the logKOW is given as 0.73 in data set [1] (setting [5]) and “+0.7” in data set [1] (setting [6]).

For the compound `CCCCCCCC` [Octane], the results for the logKOW in data set [1] (setting [3]) and in data set [1] (setting [4]) were 5.2 and 5.15, respectively.

Take `CCC(C)C` [Isopentane]: the logKOW in data set [1] (setting [3]) is on record as 3.2.

For the compound `Clc1ccccc1Cl` [o-Dichlorobenzene], in data set [1] (setting [7]), the logKOW is 3.4.

For the compound `CCCOC(C)=O` [n-Propyl acetate], in data set [1] (setting [6]), the logKOW result is listed as “+1.4”.

Consider `CCC(C)c1ccccc1` (stereo not drawn) [2-Phenylbutane], for which, in data set [1] (setting [7]), the logKOW is given as 3.4.

As for `C1CCCC1` [Cyclopentane], the logKOW was 3.0 in data set [1] (setting [3]) and 3.00 in data set [1] (setting [4]).

For `CC(C)Cc1ccccc1` [2-Methyl-1-phenylpropane], the logKOW in data set [1] (setting [7]) is reported as 3.4.

Take `CCCC(C)(C)C` [2,2-Dimethylpentane]: the logKOW in data set [1] (setting [3]) is on record as 3.8.

As to `OCC(O)CO` [Glycerin], in data set [1] (setting [6]), the logKOW is −1.8.

Consider `CCCC(C)C` [2-Methylpentane], for which, in data set [1] (setting [3]), the logKOW is 3.6.

In the case of `CO[C@H]1C[C@@H]2CC[C@@H](C)[C@@](O)(O2)C(=O)C(=O)N2CCCC[C@H]2C(=O)O[C@H]([C@H](C)C[C@@H]2CC[C@@H](OCCO)[C@H](OC)C2)CC(=O)[C@H](C)/C=C(\C)[C@@H](O)[C@@H](OC)C(=O)[C@H](C)C[C@H](C)/C=C/C=C/C=C/1C` [Everolimus, 40-O-(2-hydroxyethyl)rapamycin], the Crystal suspension entry in data set [2] (Acetone/Cyclohexane 10:90 (v/v)) is given as “+++”; in data set [2] (Acetone/Cyclohexane 30:70 (v/v)), “+/−”; in data set [2] (Acetone/Cyclohexane 40:60 (v/v)) it was “+/−”; in data set [2] (Acetone/Cyclohexane 50:50 (v/v)) it was “−−−”; in data set [2] (Acetone/Cyclohexane 60:40 (v/v)), “−−−”; in data set [2] (Acetone/Heptane 10:90 (v/v)), “+++”. In addition, the Crystal suspension result in data set [2] (Acetone/Heptane 30:70 (v/v)) is “+/−”; in data set [2] (Acetone/Heptane 40:60 (v/v)), “+/−”; in data set [2] (Acetone/Heptane 50:50 (v/v)) it was “−−−”; in data set [2] (Acetone/Heptane 60:40 (v/v)), “−−−”; in data set [2] (Acetone/Hexane 10:90 (v/v)), “+++”; in data set [2] (Acetone/Hexane 30:70 (v/v)), “+/−”. The Crystal suspension entry in data set [2] (Acetone/Hexane 40:60 (v/v)) was “+/−”; in data set [2] (Acetone/Hexane 50:50 (v/v)), “−−−”; in data set [2] (Acetone/Hexane 60:40 (v/v)), “−−−”; in data set [2] (Ethanol/Cyclohexane 10:90 (v/v)), “+++”; in data set [2] (Ethanol/Cyclohexane 40:60 (v/v)), “+/−”; in data set [2] (Ethanol/Cyclohexane 50:50 (v/v)), “−−−”. Besides, the Crystal suspension entry in data set [2] (Ethanol/Cyclohexane 60:40 (v/v)) is listed as “−−−”; in data set [2] (Ethanol/Heptane 10:90 (v/v)), “+++”; in data set [2] (Ethanol/Heptane 40:60 (v/v)), “+/−”; in data set [2] (Ethanol/Heptane 50:50 (v/v)), “−−−”; in data set [2] (Ethanol/Heptane 60:40 (v/v)), “−−−”; in data set [2] (Ethanol/Hexane 10:90 (v/v)), “+++”. For the same compound, the Crystal suspension entry in data set [2] (Ethanol/Hexane 40:60 (v/v)) is reported as “+/−”; in data set [2] (Ethanol/Hexane 50:50 (v/v)) it was “−−−”; in data set [2] (Ethanol/Hexane 60:40 (v/v)), “−−−”; in data set [2] (Ethyl acetate/Cyclohexane 10:90 (v/v)), “+++”; in data set [2] (Ethyl acetate/Cyclohexane 30:70 (v/v)), “+++”; in data set [2] (Ethyl acetate/Cyclohexane 40:60 (v/v)), “+++”. Moreover, the Crystal suspension result in data set [2] (Ethyl acetate/Cyclohexane 50:50 (v/v)) is “+/−”; in data set [2] (Ethyl acetate/Cyclohexane 60:40 (v/v)), “+/−”; in data set [2] (Ethyl acetate/Heptane 10:90 (v/v)) it was “+++”; in data set [2] (Ethyl acetate/Heptane 30:70 (v/v)), “+++”; in data set [2] (Ethyl acetate/Heptane 40:60 (v/v)), “+++”; in data set [2] (Ethyl acetate/Heptane 50:50 (v/v)) it was “+/−”. Moreover, the Crystal suspension result in data set [2] (Ethyl acetate/Heptane 60:40 (v/v)) was “+/−”; in data set [2] (Ethyl acetate/Hexane 10:90 (v/v)), “+++”; in data set [2] (Ethyl acetate/Hexane 30:70 (v/v)), “+++”; in data set [2] (Ethyl acetate/Hexane 40:60 (v/v)), “+++”; in data set [2] (Ethyl acetate/Hexane 50:50 (v/v)) it was “+/−”; in data set [2] (Ethyl acetate/Hexane 60:40 (v/v)), “+/−”. Besides, the Crystal suspension result in data set [2] (iso-propanol/Cyclohexane 10:90 (v/v)) is reported as “+++”; in data set [2] (iso-propanol/Cyclohexane 30:70 (v/v)), “+/−”; in data set [2] (iso-propanol/Cyclohexane 40:60 (v/v)) it was “+/−”; in data set [2] (iso-propanol/Cyclohexane 50:50 (v/v)), “−−−”; in data set [2] (iso-propanol/Cyclohexane 60:40 (v/v)), “−−−”; in data set [2] (iso-propanol/Heptane 10:90 (v/v)), “+++”. The Crystal suspension result in data set [2] (iso-propanol/Heptane 30:70 (v/v)) was “+/−”; in data set [2] (iso-propanol/Heptane 40:60 (v/v)), “+/−”; in data set [2] (iso-propanol/Heptane 50:50 (v/v)), “−−−”; in data set [2] (iso-propanol/Heptane 60:40 (v/v)) it was “−−−”; in data set [2] (iso-propanol/Hexane 10:90 (v/v)) it was “+++”; in data set [2] (iso-propanol/Hexane 30:70 (v/v)), “+/−”. The figures for the Crystal suspension entry in data set [2] (iso-propanol/Hexane 40:60 (v/v)), in data set [2] (iso-propanol/Hexane 50:50 (v/v)) and in data set [2] (iso-propanol/Hexane 60:40 (v/v)) were “+/−”, “−−−” and “−−−”, respectively.

Consider `FC(F)(F)C(F)(F)C(F)(F)C(F)(F)C(F)(F)C(F)(F)F` [Tetradecafluorohexane], for which the logKOW in data set [1] (setting [7]) is recorded as 5.8.

Regarding `C1CCOC1` [Tetrahydrofuran (THF), Tetrahydrofuran], the figures for the logKOW in data set [1] (setting [5]) and in data set [1] (setting [6]) were 0.46 and “+0.5”, respectively.

On to `CC(C)c1ccccc1` [Cumol], for which the logKOW in data set [1] (setting [7]) is 3.4.

For `CC(C)CC(C)(C)C` [2,2,4-Trimethylpentane], the logKOW in data set [1] (setting [3]) is on record as 4.1.

As for `Clc1ccccc1` [Chlorobenzene], the “log KOW” value in data set [1] was “about 2.9”. In addition, the logKOW in data set [1] (setting [7]) was 2.9.

With `C1COCCO1` [1,4-Dioxane], the “log KOW” value in data set [1] is given as “about −0.4”.

Turning to `COC(C)=O` [Methyl acetate], the logKOW result in data set [1] (setting [6]) is “+0.2”.

With `CC(C)(C)C1CCCCC1` [tert-butylcyclohexane], the logKOW in data set [1] (setting [3]) is reported as 4.0.

On to `CCc1ccccc1` [Ethylbenzene], for which, in data set [1] (setting [7]), the logKOW is on record as 3.2.

For the compound `CCOc1ccccc1` [Ethoxybenzene], the logKOW in data set [1] (setting [7]) is reported as 2.5.

Source of the values: patent US20230414839A1, “COATED MEDICAL PRODUCT” (HEMOTEQ AG, priority 2020, published 2023).
